The values that follow come from patent US20250288573A1 (H. LEE MOFFITT CANCER CENTER AND RESEARCH INSTITUTE, INC., priority 2018, published 2025).

Each structure is given as a SMILES string. Read-outs that look alike come from different tables or passages of the source.

One assay has as its target T1, CRBN (Homo sapiens, UniProt Q96SW2).
T1 construct: endogenous in cells; host or cells: primary human T cells / CD8+ T cells from peripheral blood
Briefly: Western blot for expression of CRBN relative to vinculin in human T cells (CRBN degradation). The assay is classed as cell-based. The following applies: for remaining activity at 10 µM / remaining activity at 0.01 µM: read-out: Relative Density of CRBN (% of DMSO); for remaining activity at 0.01 µM: 10nM. From the text: Bortez=bortezomib; MG132=proteasome inhibitor; MLN4924=NEDD8 inhibitor.
This assay is a standard Western blot assay for expression of CRBN relative to vinculin.
[…] 0.1 percent DMSO was used as a vehicle control.

For a further assay, the target named is cereblon (CRBN) (Homo sapiens, UniProt Q96SW2). Put plainly: Kd and % inhibition from FI. The assay is classed as binding. The following applies: for inhibition at 200 µM: read-out: % inhibition @ 200 uM from *FI.
Setting [1] is: FI, read-out: Kd (FI) (converted).
Where [2] appears, read: cell does not state FI or ITC, read-out: Kd (A) FI/ITC.

Sequence of cereblon (CRBN) (Q96SW2 whole entry, species assumed): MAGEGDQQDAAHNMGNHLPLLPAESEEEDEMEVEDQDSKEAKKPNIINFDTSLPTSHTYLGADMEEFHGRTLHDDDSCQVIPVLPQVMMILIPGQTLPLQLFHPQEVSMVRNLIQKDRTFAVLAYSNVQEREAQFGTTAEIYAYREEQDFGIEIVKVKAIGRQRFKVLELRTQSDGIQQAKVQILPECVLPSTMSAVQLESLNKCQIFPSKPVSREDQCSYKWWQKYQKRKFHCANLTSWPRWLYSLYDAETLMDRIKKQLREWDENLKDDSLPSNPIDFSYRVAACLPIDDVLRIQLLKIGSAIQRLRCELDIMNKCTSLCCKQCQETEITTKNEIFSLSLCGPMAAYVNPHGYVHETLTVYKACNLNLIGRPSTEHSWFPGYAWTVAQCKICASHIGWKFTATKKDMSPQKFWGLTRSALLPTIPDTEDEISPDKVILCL
T1 sequence (Q96SW2 whole entry): as the sequence (Q96SW2 whole entry, species assumed) above

For the compound `O=C1CCC(N2Cc3c(CCCOCCOCCOCCOCCCc4cccc5c4CN(C4CCC(=O)NC4=O)C5=O)cccc3C2=O)C(=O)N1` (stereo not shown) [SM2-139, 3,3′-((4,7,10,13-Tetraoxahexadecane-1,16-diyl)bis(1-oxoisoindoline-4,2-diyl))bis(piperidine-2,6-dione)], the remaining activity at 10 µM at CRBN amounted to 19.4%. The remaining activity at 0.01 µM on CRBN (24 h, human T cells, 24 hours) turned out to be 44.3%. Also, the Kd on cereblon (CRBN) (setting [1]) is 9.38 ± 0.59 µM. Further, the inhibition at 200 µM on cereblon (CRBN) worked out at 79.6 ± 3.13%.
Consider `O=C(CCc1cccc2c1CN(C1CCC(=O)NC1=O)C2=O)NCCOCCNC(=O)CCc1cccc2c1CN(C1CCC(=O)NC1=O)C2=O` (stereo not shown) [SM3-010, N,N′-(Oxybis(ethane-2,1-diyl))bis(3-(2-(2,6-dioxopiperidin-3-yl)-1-oxoisoindolin-4-yl)propanamide)], for which the remaining activity at 10 µM on CRBN came to 86.9%. On CRBN (24 h, human T cells, 24 hours), the remaining activity at 0.01 µM is 119%. Besides, the Kd at cereblon (CRBN) (setting [1]) is 14.3 ± 0.52 µM. For the same compound, the inhibition at 200 µM at cereblon (CRBN) was 72.4 ± 0.84%.
Take `Cc1sc2c(c1C)C(c1ccc(Cl)cc1)=N[C@H](CC(=O)NCCCCC(=O)N[C@H]1CC(=O)NC1=O)c1nnc(C)n1-2` [XS01-089]: the Kd on cereblon (CRBN) (setting [2]) came out at 353 ± 108 µM.
Regarding `O=C1CCC(NC(=O)CCCCCCCCC(=O)NC2CCC(=O)NC2=O)C(=O)N1` (stereo not shown) [XS01-039, N^1,N^10-Bis(2,6-dioxopiperidin-3-yl)decanediamide], the remaining activity at 0.01 µM on CRBN (B2) is 92.9%; on CRBN (24 h, human T cells, 24 hours) it was 61.3%. Moreover, the remaining activity at 10 µM on CRBN (B2) amounted to 13.1%; at CRBN it was 0.98%. The Kd at cereblon (CRBN) (setting [2]) is 161 ± 19.3 µM.
Consider `O=C1CCC(N2Cc3c(NC(=O)CCCCCC(=O)Nc4cccc5c4CN(C4CCC(=O)NC4=O)C5=O)cccc3C2=O)C(=O)N1` (stereo not shown) [EC1-141, N^1,N^7-Bis(2-(2,6-dioxopiperidin-3-yl)-1-oxoisoindolin-4-yl)heptanediamide], for which the remaining activity at 10 µM at CRBN was found to be 7.19%. The remaining activity at 0.01 µM at CRBN (24 h, human T cells, 24 hours) amounted to 91.2%. On cereblon (CRBN) (setting [1]), the Kd is 22.1 ± 1.47 µM. On cereblon (CRBN), the inhibition at 200 µM stood at 71.6 ± 2%.
Regarding `O=C(CCc1cccc2c1CN(C1CCC(=O)NC1=O)C2=O)NCCOCCOCCNC(=O)CCc1cccc2c1CN(C1CCC(=O)NC1=O)C2=O` (stereo not shown) [SM3-005, N,N′-((Ethane-1,2-diylbis(oxy))bis(ethane-2,1-diyl))bis(3-(2-(2,6-dioxopiperidin-3-yl)-1-oxoisoindolin-4-yl)propanamide)], the remaining activity at 10 µM on CRBN came to 91.1%. Further, the remaining activity at 0.01 µM at CRBN (24 h, human T cells, 24 hours) was 80.6%. Moreover, the Kd at cereblon (CRBN) (setting [1]) is 15 ± 0.97 µM. Further, the inhibition at 200 µM on cereblon (CRBN) stood at 72.8 ± 1.38%.
With `O=C(CCc1cccc2c1CN(C1CCC(=O)NC1=O)C2=O)NCCOCCOCCOCCNC(=O)CCc1cccc2c1CN(C1CCC(=O)NC1=O)C2=O` (stereo not shown) [SM3-011, N,N′-(((Oxybis(ethane-2,1-diyl))bis(oxy))bis(ethane-2,1-diyl))bis(3-(2-(2,6-dioxopiperidin-3-yl)-1-oxoisoindolin-4-yl)propanamide)], the remaining activity at 10 µM on CRBN came to 85.4%. In addition, on CRBN (24 h, human T cells, 24 hours), the remaining activity at 0.01 µM was 102%. The Kd at cereblon (CRBN) (setting [1]) is 14.8 ± 1.08 µM. The inhibition at 200 µM at cereblon (CRBN) is 73.39 ± 0.71%.
As to `O=C1CCC(NC(=O)c2cccc(NC(=O)CCCC(=O)Nc3cccc(C(=O)NC4CCC(=O)NC4=O)c3)c2)C(=O)N1` (stereo not shown) [XS01-074, N^1,N^5-Bis(3-((2,6-Dioxopiperidin-3-yl)carbamoyl)phenyl)glutaramide], the remaining activity at 10 µM at CRBN was found to be 25.9%. Further, at cereblon (CRBN) (setting [2]), the Kd is 187 ± 16.2 µM.
For `O=C1CCC(N2C(=O)c3cccc(NC(=O)CCCCCCCC(=O)Nc4cccc5c4C(=O)N(C4CCC(=O)NC4=O)C5=O)c3C2=O)C(=O)N1` (stereo not shown), the remaining activity at 10 µM at CRBN amounted to 6.19%. The remaining activity at 0.01 µM on CRBN (24 h, human T cells, 24 hours) amounted to 29.8%. On cereblon (CRBN) (200 uM), the “% inhibition @ 200 uM from *FI” value is “n.b”.
In the case of `O=C(/C=C/c1cccc2c1CN(C1CCC(=O)NC1=O)C2=O)NCCOCCNC(=O)/C=C/c1cccc2c1CN(C1CCC(=O)NC1=O)C2=O` (stereo not shown) [SM3-006, (2E,2′E)-N,N′-(Oxybis(ethane-2,1-diyl))bis(3-(2-(2,6-dioxopiperidin-3-yl)-1-oxoisoindolin-4-yl)acrylamide)], the remaining activity at 10 µM at CRBN turned out to be 85.3%. Further, at CRBN (24 h, human T cells, 24 hours), the remaining activity at 0.01 µM worked out at 110%. For the same compound, the Kd on cereblon (CRBN) (setting [1]) was 15.2 ± 1.52 µM. Also, the inhibition at 200 µM at cereblon (CRBN) is 72.9 ± 1.19%.
With `Cc1ncsc1-c1ccc(CNC(=O)[C@@H]2C[C@@H](O)CN2C(=O)[C@@H](NC(=O)COCCOCCOCCOCCCc2cccc3c2CN(C2CCC(=O)NC2=O)C3=O)C(C)(C)C)cc1` (stereo partly drawn) [SR3-108, (2S,4R)-1-((2S)-2-(tert-Butyl)-18-(2-(2,6-dioxopiperidin-3-yl)-1-oxoisoindolin-4-yl)-4-oxo-6,9,12,15-tetraoxa-3-azaoctadecanoyl)-4-hydroxy-N-(4-(4-methylthiazol-5-yl)benzyl)pyrrolidine-2-carboxamide], the Kd at cereblon (CRBN) (setting [1]) was 13.6 ± 1.51 µM.
For the compound `O=C1CCC(N2Cc3c(NC(=O)CCc4cn(CC(=O)Nc5cccc6c5CN(C5CCC(=O)NC5=O)C6=O)nn4)cccc3C2=O)C(=O)N1` (stereo not shown) [XS01-113, N-(2-(2,6-dioxopiperidin-3-yl)-1-oxoisoindolin-4-yl)-3-(1-(2-((2-(2,6-dioxopiperidin-3-yl)-1-oxoisoindolin-4-yl)amino)-2-oxoethyl)-1H-1,2,3-triazol-4-yl)propanamide], the remaining activity at 10 µM on CRBN was 106%. Also, on CRBN (24 h, human T cells, 24 hours), the remaining activity at 0.01 µM stood at 225%.
In the case of `O=C1CCC(NC(=O)c2cccc(NC(=O)CCCCCCC(=O)Nc3cccc(C(=O)NC4CCC(=O)NC4=O)c3)c2)C(=O)N1` (stereo not shown) [XS01-050, N^1,N^8-Bis(3-((2,6-dioxopiperidin-3-yl)carbamoyl)phenyl)octanedimide], the remaining activity at 10 µM on CRBN amounted to 20%. The remaining activity at 0.01 µM on CRBN (24 h, human T cells, 24 hours) worked out at 168%.
Turning to `Cc1nc2cccc(NC(=O)Cn3cc(CCC(=O)Nc4cccc5c4CN(C4CCC(=O)NC4=O)C5=O)nn3)c2c(=O)n1C1CCC(=O)NC1=O` (stereo not shown) [XS01-127, N-(2-(2,6-Dioxopiperidin-3-yl)-1-oxoisoindolin-4-yl)-3-(1-(2-((3-(2,6-dioxopiperidin-3-yl)-2-methyl-4-oxo-3,4-dihydroquinazolin-5-yl)amino)-2-oxoethyl)-1H-1,2,3-triazol-4-yl)propanamide], at CRBN, the remaining activity at 10 µM turned out to be 175%. Further, on CRBN (24 h, human T cells, 24 hours), the remaining activity at 0.01 µM was 228%.
For `Cc1sc2c(c1C)C(c1ccc(Cl)cc1)=N[C@H](CC(=O)NCCCCC(=O)NC1CCC(=O)NC1=O)c1nnc(C)n1-2` (stereo partly shown) [EC2-092], the Kd on cereblon (CRBN) (setting [2]) was found to be 226 ± 21.6 µM.
For `Cc1sc2c(c1C)C(c1ccc(Cl)cc1)=N[C@@H](CC(=O)NCCCCC(=O)Nc1cccc(C(=O)NC3CCC(=O)NC3=O)c1)c1nnc(C)n1-2` (stereo partly shown) [EC2-088], the “CRBN Degradation (WB)/ IC50/DC50 Relative Density of CRBN (% of DMSO): value without qualifier” value at CRBN (no concentration or unit printed) is recorded as 43.73 ± 24.45 (1/25/19).
On to `Cc1nc2cccc(NC(=O)Cn3cc(CCCC(=O)Nc4cccc5c4CN(C4CCC(=O)NC4=O)C5=O)nn3)c2c(=O)n1C1CCC(=O)NC1=O` (stereo not shown) [XS01-123, N-(2-(2,6-Dioxopiperidin-3-yl)-1-oxoisoindolin-4-yl)-4-(1-(2-((3-(2,6-dioxopiperidin-3-yl)-2-methyl-4-oxo-3,4-dihydroquinazolin-5-yl)amino)-2-oxoethyl)-1H-1,2,3-triazol-4-yl)butanamide], for which the remaining activity at 10 µM at CRBN was 151%. In addition, the remaining activity at 0.01 µM on CRBN (24 h, human T cells, 24 hours) was 243%.
For `O=C1CCC(N2Cc3c(CCCCCCCCCC(=O)Nc4cccc5c4CN(C4CCC(=O)NC4=O)C5=O)cccc3C2=O)C(=O)N1` (stereo not shown) [EC2-102, N,10-bis(2-(2,6-Dioxopiperidin-3-yl)-1-oxoisoindolin-4-yl)decanamide] the same measures were 25.2% and 58.9%.
In the case of `O=C1CCC(N2Cc3c(C#CCCCCCCCC(=O)Nc4cccc5c4CN(C4CCC(=O)NC4=O)C5=O)cccc3C2=O)C(=O)N1` (stereo not shown) [EC2-100, N,10-bis(2-(2,6-Dioxopiperidin-3-yl)-1-oxoisoindolin-4-yl)dec-9-ynamide], at CRBN, the remaining activity at 10 µM came out at 32.2%. In addition, the remaining activity at 0.01 µM on CRBN (24 h, human T cells, 24 hours) worked out at 55.5%.
As for `O=C1C[C@H](NC(=O)c2cccc(NC(=O)CCCCCCC(=O)Nc3cccc(C(=O)N[C@H]4CC(=O)NC4=O)c3)c2)C(=O)N1` [XS01-066, N^1,N^8-Bis(3-(((S)-2,5-dioxopyrrolidin-3-yl)carbamoyl)phenyl)octanediamide], the remaining activity at 10 µM on CRBN is 157%.
Turning to `O=C1CCC(N2Cc3c(NC(=O)CCc4cn(CC(=O)Nc5cccc6c5C(=O)N(C5CCC(=O)NC5=O)C6=O)nn4)cccc3C2=O)C(=O)N1` (stereo not shown) [XS01-125, 3-(1-(2-((2-(2,6-Dioxopiperidin-3-yl)-1,3-dioxoisoindolin-4-yl)amino)-2-oxoethyl)-1H-1,2,3-triazol-4-yl)-N-(2-(2,6-dioxopiperidin-3-yl)-1-oxoisoindolin-4-yl)propanamide], the remaining activity at 10 µM at CRBN was 153%. In addition, at CRBN (24 h, human T cells, 24 hours), the remaining activity at 0.01 µM stood at 196%.
Turning to `Cc1nc2cccc(NC(=O)CCCCC(=O)Nc3cccc4nc(C)n(C5CCC(=O)NC5=O)c(=O)c34)c2c(=O)n1C1CCC(=O)NC1=O` (stereo not shown) [MA10-088, N1,N6-bis(3-(2,6-Dioxopiperidin-3-yl)-2-methyl-4-oxo-3,4-dihydroquinazolin-5-yl)adipamide], the remaining activity at 10 µM at CRBN came to 58.1%. Moreover, at CRBN (24 h, human T cells, 24 hours), the remaining activity at 0.01 µM was 135%.
With `Cc1nc2cccc(C#CCOCCOCCOCC#Cc3cccc4nc(C)n(C5CCC(=O)NC5=O)c(=O)c34)c2c(=O)n1C1CCC(=O)NC1=O` (stereo not shown) [MA10-153, 3,3′-((((Oxybis(ethane-2,1-diyl))bis(oxy))bis(prop-1-yne-3,1-diyl))bis(2-methyl-4-oxoquinazoline-5,3(4H)-diyl))bis(piperidine-2,6-dione)], the remaining activity at 10 µM on CRBN came out at 208%. Besides, at CRBN (24 h, human T cells, 24 hours), the remaining activity at 0.01 µM is 14.8%. Also, the “CRBN Degradation ** (WB)” value at CRBN (grade (+) to (++++) or words, key not given) is listed as “No Degradation”.
